# Patent US12539294B2, “Combination of an azetidine LPA1 receptor antagonist with pirfenidone and/or nintedanib for use in the treatment of fibrotic diseases” (Idorsia Pharmaceuticals Ltd, priority 2020, dated 2026)
# How the values were obtained:
# human LPA1 receptor = molecular target: T1, human LPA1 receptor (Homo sapiens, UniProt Q92633); test: Beta-arrestin recruitment assay (Tango EDG2-bla U2OS cells) to determine IC50 values for human LPAR1; type: cell-based; details: antagonist mode, LPA 18:1 500 nM final; geomean where multiple values
# T1 construct: TEV protease site; Gal4-VP16 transcription factor; host or cells: Tango EDG2-bla U2OS cells
# From the text: Biological Assays Beta-Arrestin Recruitment Assay to Determine IC50 values for human LPAR1
# The Tango™ EDG2-bla U2OS cells are obtained from Invitrogen. These cells contain the human LPA1 receptor cDNA linked to a TEV protease site and a Gal4-VP16 transcription factor integrated into the Tango™ GPCR-bla U2OS parental cell line. This parental cell line stably expresses a beta-arrestin/TEV protease fusion protein and the beta-lactamase (bla) reporter gene under the control of a UAS response element. Upon LPA (agonist) binding, LPA1 receptor gets activated, leading to arrestin-protease recruitment and proteolytic release of the transcription factor: The transcription factor then regulates transcription of a beta-lactamase reporter construct, which is measured upon addition of the live-cell substrate.
# 10'000 Tango™ EDG2-bla U2OS cells are seeded in a 384-well black with clear bottom plate in 30 μl Freestyle 293 Expression Medium (Invitrogen) and incubated for 20 h at 37° C., 5% CO2. For antagonist assays, 5 μl of test compound (dilution series in DMSO/Freestyle 293 Expression medium/0.1% fatty acid free BSA (Sigma)) or buffer control are added per well and incubated for 30 min at 37° C., 5% CO2. 5 μl of LPA 18:1 (500 nM final) (solution in Freestyle 293 Expression medium/0.1% fatty acid free BSA (Sigma)) are added per well and the plate incubated for 16 h at 37° C., 5% CO2. Cells are then loaded with LiveBLAzer-FRET™ B/G Substrate (Invitrogen) for 2 h in the dark and the fluorescence emission at 460 nm and 530 nm is measured using the SynergyMx reader (BioTek). Following the background subtraction from both channels, the 460/530 nm emission ratio for each well is calculated, then plotted and fitted to a 4-parameter logistic function to obtain IC50 values. IC50 is the concentration of antagonist inhibiting 50% of the maximal response.
# Where multiple values were measured, geomean values are given.
# [1] = cited from earlier work
# [2] = tested on: LPA-induced vascular leakage; test: mouse LPA-induced skin vascular leakage model; type: in vivo; details: oral administration of 30 mg/kg to mice
# Method: The in vivo potency of the compounds of Formula (I) can be determined using a mouse LPA-induced skin vascular leakage model. Female Balb/c mice are treated with either vehicle or test compound (p.o.) for at least 1 h prior to administration of the albumin marker Evans blue (50 mg/kg, i.v., 0.9% NaCl) and subsequent challenge with LPA (5 μg, i.d.). After 30 minutes, mice are sacrificed by CO2 inhalation. Discs of skin from the injection sites are removed, digested in formamide (500 μl, 37° C., 24 hrs) and the content of Evans blue quantified by colorimetric assay. Results are expressed as extravasated Evans blue per skin disc (μg/disc).
# As an example, selected compound of the present invention, Ex 5-2, is able to effectively reduce LPA-induced vascular leakage after oral administration of 30 mg/kg to mice as compared to a group of animals treated with vehicle only. Reduction of vascular leakage compared to vehicle group was ≥60%.
# NHLF = test: TGFβ-induced αSMA expression in human fibroblasts, combination with nintedanib; type: cell-based; details: 1 μM nintedanib, TGFβ 5 ng/ml, 48 h
# Method: Combination Efficacy Experiment: TGFβ-Induced αSMA Expression in Human Fibroblasts:
# NHLF were obtained from Lonza. 10'000 cells were seeded in 24-well plates in 300 μl FGM™ and incubated for 20 hours at 37° C., 5% CO2. The medium was changed for 300 μl FBM™ supplemented with 0.1% fatty acid free BSA (Sigma) and the plate incubated for 20 hours at 37° C., 5% CO2. 100 μl of the respective COMPOUND, nintedanib or their combination (solution in FBM™/0.1% fatty acid free BSA) were added per well and incubated for 30 minutes, followed by addition of 100 μl of TGFβ (5 ng/ml final) (solution in FBM™/0.1% fatty acid free BSA) and incubation for 48 h at 37° C., 5% CO2. […] Samples were resolved by SDS-PAGE on 4-12% Novex Bis-Tris precast gels (Thermo Fischer Scientific) and analyzed by western blot using αSMA (Sigma) and HRP-coupled secondary antibodies.
# Membranes were treated with Western Lighting Enhanced Chemiluminescence Substrate (Perkin Elmer) and the chemiluminescence signal was recorded by the reader Fusion FX6 (Viber Lourmat). Signals were quantified using densitometric analysis in Fusion software. % of inhibition of TGFβ-induced αSMA expression was calculated for each COMPOUND, nintedanib and their combination. Additive effect was calculated by adding the values of % of inhibition by COMPOUND alone and nintedanib alone and expressed as “expected combo inhibition”. […]
# [3] = cited from earlier work; remark: listed apart in the source
# [4] = tested on: primary human lung (myo)fibroblasts; details: cited from earlier work; for fibroblast to myofibroblast differentiation and/or pro-fibrotic activity of (myo)fibroblasts: primary human lung (myo)fibroblasts, various conditions
# [5] = tested on: Normal Human Lung Fibroblasts (NHLF); test: TGFβ-induced αSMA expression in human fibroblasts, combination with pirfenidone; type: cell-based
# Method: The anti-fibrotic effect of the respective Example COMPOUND A-C or Reference COMPOUND D (BMS-986020) and pirfenidone alone or in combination can be determined in vitro in the assay of TGFβ-induced myofibroblast differentiation.
# Combination Efficacy Experiment: Transforming Growth Factor Beta (TGFβ)-Induced α-Smooth Muscle Actin (αSMA) Expression in Human Fibroblasts:
# Normal Human Lung Fibroblasts (NHLF) were obtained from Lonza. 10'000 cells were seeded in 24-well plates in 300 μl Fibroblast Growth Medium-2 (FGM™-2, Lonza) and incubated for 20 hours at 37° C., 5% CO2. […] Samples were resolved by SDS-PAGE on 4-12% Novex Bis-Tris precast gels (Thermo Fischer Scientific) and analyzed by western blot using αSMA (Sigma) and HRP-coupled secondary antibodies. Membranes were treated with Western Lighting Enhanced Chemiluminescence Substrate (Perkin Elmer) and the chemiluminescence signal was recorded by the reader Fusion FX6 (Viber Lourmat). Signals were quantified using densitometric analysis in Fusion software. % of inhibition of TGFβ-induced αSMA expression was calculated for each COMPOUND, pirfenidone and their combination. Additive effect was calculated by adding the values of % of inhibition by COMPOUND alone and pirfenidone alone and expressed as “expected combo inhibition”. Measured % of inhibition by COMPOUND and pirfenidone combination was expressed as “measured combo inhibition”. […]
# [6] = cited from earlier work; remark: listed apart in the source
# T1 sequence (Q92633 whole entry, the tested form may be a part): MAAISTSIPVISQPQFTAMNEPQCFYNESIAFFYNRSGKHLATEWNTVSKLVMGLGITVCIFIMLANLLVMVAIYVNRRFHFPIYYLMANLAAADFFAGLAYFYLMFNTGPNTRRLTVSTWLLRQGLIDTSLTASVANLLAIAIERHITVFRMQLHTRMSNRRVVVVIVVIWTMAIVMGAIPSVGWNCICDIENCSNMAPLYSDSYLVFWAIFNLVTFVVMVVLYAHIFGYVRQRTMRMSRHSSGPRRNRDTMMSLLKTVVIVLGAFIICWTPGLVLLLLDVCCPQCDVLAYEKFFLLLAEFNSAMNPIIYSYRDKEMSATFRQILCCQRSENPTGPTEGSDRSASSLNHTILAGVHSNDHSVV
compound,measurement,setting,value
"4-(3-((6-chloro-4-ethoxypyridin-3-yl)carbamoyl)-3-(2-isopropylphenyl)azetidin-1-yl)-2,2-dimethyl-4-oxobutanoic acid [Example 4-5]",IC50,human LPA1 receptor,12 nM
Cc1noc(-c2ccc(-c3ccc(C4(C(=O)O)CC4)cc3)cc2)c1NC(=O)O[C@H](C)c1ccccc1 [BMS-986020],rate of decline in forced vital capacity (FVC) versus placebo,"[1]; IPF patients, b.i.d.",significantly slower rate of decline
same,hepatic enzymes,[1]; both BMS-986020 treatment groups,Dose-related elevations
same,cases of cholecystitis determined to be related to treatment,[1]; study terminated early,three cases of cholecystitis
"CCOc1cc(Cl)ncc1NC(=O)C1(c2ccccc2C(C)C)CN(CCC(C)(C)C(=O)O)C1 [Example 2-4, 4-(3-((6-chloro-4-ethoxypyridin-3-yl)carbamoyl)-3-(2-isopropylphenyl)azetidin-1-yl)-2,2-dimethylbutanoic acid]",IC50,human LPA1 receptor,20 nM
"Cc1ccc(NC(=O)C2(c3ccccc3C(C)C)CN(CCCC(C)(C)C(=O)O)C2)c(OC(F)F)n1 [Example 3-1, 5-(3-((2-(difluoromethoxy)-6-methylpyridin-3-yl)carbamoyl)-3-(2-isopropylphenyl)azetidin-1-yl)-2,2-dimethylpentanoic acid]",IC50,human LPA1 receptor,13 nM
"COc1cc(Cl)ncc1NC(=O)C1(c2ccccc2C(C)C)CN(C(=O)CC(C)(C)C(=O)O)C1 [Example 4-2, 4-(3-((6-chloro-4-methoxypyridin-3-yl)carbamoyl)-3-(2-isopropylphenyl)azetidin-1-yl)-2,2-dimethyl-4-oxobutanoic acid]",IC50,human LPA1 receptor,79 nM
"COc1cc(F)ncc1NC(=O)C1(c2ccccc2C(C)C)CN(S(N)(=O)=O)C1 [Example 5-1, N-(6-fluoro-4-methoxypyridin-3-yl)-3-(2-isopropylphenyl)-1-sulfamoylazetidine-3-carboxamide]",IC50,human LPA1 receptor,19 nM
"COc1cc(Cl)ncc1NC(=O)C1(c2ccccc2C(C)C)CN(S(N)(=O)=O)C1 [Example 5-2, N-(6-chloro-4-methoxypyridin-3-yl)-3-(2-isopropylphenyl)-1-sulfamoylazetidine-3-carboxamide]",Reduction of vascular leakage compared to vehicle group,[2],≥ 60%
"CCOc1cc(Cl)ncc1NC(=O)C1(c2ccccc2C(C)C)CN(S(N)(=O)=O)C1 [Example 5-3, N-(6-chloro-4-ethoxypyridin-3-yl)-3-(2-isopropylphenyl)-1-sulfamoylazetidine-3-carboxamide]",IC50,human LPA1 receptor,3 nM
"Cc1ccc(NC(=O)C2(c3ccccc3C(C)C)CN(S(N)(=O)=O)C2)c(OC(F)F)n1 [Example 5-7, N-(2-(difluoromethoxy)-6-methylpyridin-3-yl)-3-(2-isopropylphenyl)-1-sulfamoylazetidine-3-carboxamide]",IC50,human LPA1 receptor,2 nM
"COc1nc(C)ccc1NC(=O)C1(c2ccccc2C(C)C)CN(S(N)(=O)=O)C1 [Example 5-8, 3-(2-isopropylphenyl)-N-(2-methoxy-6-methylpyridin-3-yl)-1-sulfamoylazetidine-3-carboxamide]",IC50,human LPA1 receptor,51 nM
"Cc1ccc(NC(=O)C2(c3ccccc3C(C)C)CN(S(N)(=O)=O)C2)c(OC(C)C)n1 [Example 5-10, N-(2-isopropoxy-6-methylpyridin-3-yl)-3-(2-isopropylphenyl)-1-sulfamoylazetidine-3-carboxamide]",IC50,human LPA1 receptor,14 nM
"CCS(=O)(=O)O.COC(=O)c1ccc2c(c1)NC(=O)/C2=C(\Nc1ccc(N(C)C(=O)CN2CCN(C)CC2)cc1)c1ccccc1 [nintedanib, (3Z)-2,3-dihydro-3-[[[4-[methyl-[(4-methyl-1-piperazinyl)-acetyl]-amino]-phenyl]-amino]-phenylmethylene]-2-oxo-1H-indole-6-carboxylic acid methyl ester ethanesulfonate]","inhibition of TGFβ-induced αSMA expression, nintedanib alone",NHLF,minimally inhibited
same,elevated liver enzymes and drug-induced liver injury,[3]; clinical and postmarketing,"ALT, AST, and bilirubin elevations have occurred"
same,reduction of the decline in lung function,"[3]; two phase III trials, over one year",approximately 50%
same,fibroblast to myofibroblast differentiation and/or pro-fibrotic activity of (myo)fibroblasts,[4],"attenuated, but usually did not fully inhibit"
"Cc1ccc(=O)n(-c2ccccc2)c1 [pirfenidone, 5-methyl-1-phenyl-2-(1H)-pyridone]","inhibition of TGFβ-induced αSMA expression, pirfenidone alone","[5]; 2 mM pirfenidone, TGFβ 5 ng/ml, 48 h",minimally inhibited
same,pirfenidone potency (IC50) on TGFβ-induced αSMA expression when combined with COMPOUND A,"[5]; presence of 10 nM, 100 nM and 1000 nM COMPOUND A versus absence (FIG. 5)",gains in potency
same,patients requiring dosage reduction or interruption for gastrointestinal events,[6]; 2403 mg/day group,18.5%
same,patients who discontinued treatment due to a gastrointestinal event,[6]; 2403 mg/day group,2.2%
same,patients with elevations ≥10×ULN in ALT or AST,[6]; 2403 mg/day group,0.3%
same,incidence of elevations in ALT or AST ≥3× upper limit of normal (ULN),"[6]; 2403 mg/day, three Phase 3 trials",3.7%
same,drug-induced liver injury (DILI),[6]; clinical and postmarketing,Cases of drug-induced liver injury (DILI) have been observed
same,concentrations used to observe significant effects in vitro,[4]; in vitro,> 0.5 mM
same,fibroblast to myofibroblast differentiation and/or pro-fibrotic activity of (myo)fibroblasts,[4],"attenuated, but usually did not fully inhibit"
